Measured values as given in ChEMBL document CHEMBL3714766, “Tetrahydroisoquinoline compounds and their use as pyruvate dehydrogenase kinase inhibitors” (2015).

Target: Pyruvate dehydrogenase kinase (Homo sapiens, UniProt Q15119+Q15120+Q16654+Q15118)
Assay: Binding affinity to pyruvate dehydrogenase kinase (unknown origin) by VER-00160364 probe based fluorescence polarization assay

Compound: O=C(c1ccc(O)cc1O)N1CCCc2cc(F)ccc21
- IC50: 100 nM

Compound: CC1CCc2cc(C(=O)N(C)c3cccc(F)c3)ccc2N1C(=O)c1ccc(O)cc1O (stereo not drawn)
- IC50: 100 nM

Compound: CC1CCc2cc(-c3ncccc3C#N)ccc2N1C(=O)c1ccc(O)cc1O (stereo not drawn)
- IC50: 100 nM

Compound: Cc1cnc(Cl)nc1-c1ccc2c(c1)CCC(C)N2C(=O)c1ccc(O)cc1O (stereo not drawn)
- IC50: 10 nM

Compound: CC1CCc2cc(C(=O)N(C)CC(F)(F)F)ccc2N1C(=O)c1cc(Cl)c(O)cc1O (stereo not drawn)
- IC50: 100 nM

Compound: CC1CCc2cc(C(=O)N(C)Cc3nc4ccccc4n3C)ccc2N1C(=O)c1ccc(O)cc1O (stereo not drawn)
- IC50: 100 nM

Compound: CC1CCc2cc(C(=O)N(C)Cc3ccc(Cl)cc3)ccc2N1C(=O)c1ccc(O)cc1O (stereo not drawn)
- IC50: 10 nM

Compound: COc1ccc(CN(C)C(=O)c2ccc3c(c2)CC[C@@H](C)N3C(=O)c2ccc(O)cc2O)cc1
- IC50: 10000 nM

Compound: CC1CCc2cc(-c3ccnn3C)ccc2N1C(=O)c1ccc(O)cc1O (stereo not drawn)
- IC50: 100 nM

Compound: C[C@H]1CCc2cc(C(=O)N(C)Cc3ccc(F)cc3)ccc2N1C(=O)c1ccc(O)cc1O
- IC50: 100 nM

Compound: Cc1cnc(-c2ccc3c(c2)CCC(C)N3C(=O)c2cc(Cl)c(O)cc2O)n1C (stereo not drawn)
- IC50: 1000 nM

Compound: CN(C)C(=O)c1ccc2c(c1)CCCN2C(=O)c1ccc(O)cc1O
- IC50: 100 nM

Compound: CC1CCc2cc(C(=O)N(C)Cc3ccc(F)cc3)ccc2N1C(=O)c1ccc(O)cc1O (stereo not drawn)
- IC50: 10 nM

Compound: CC1CCc2cc(C(=O)N3CCC3)ccc2N1C(=O)c1ccc(O)cc1O (stereo not drawn)
- IC50: 100 nM

Compound: CN(C(=O)c1ccc2c(c1)CCCN2C(=O)c1ccc(O)cc1O)c1cccc(F)c1
- IC50: 100 nM

Compound: O=C(c1ccc(O)cc1O)N1CCCc2cc(-c3ncccc3C(F)(F)F)ccc21
- IC50: 1000 nM

Compound: C[C@@H]1CCc2ccccc2N1C(=O)c1cc(Cl)c(O)cc1O
- IC50: 10000 nM

Compound: N#Cc1cccnc1-c1ccc2c(c1)CCCN2C(=O)c1ccc(O)cc1O
- IC50: 1000 nM

Compound: C[C@H]1CCc2cc(C(=O)N(C)Cc3cc4ccccc4[nH]3)ccc2N1C(=O)c1ccc(O)cc1O
- IC50: 100 nM

Compound: CC1CCc2cc(-c3ncccc3Cl)ccc2N1C(=O)c1ccc(O)cc1O (stereo not drawn)
- IC50: 100 nM

Compound: CC1CCc2cc(C(=O)N(C)Cc3ccc(Cl)cc3)ccc2N1C(=O)c1cc(Cl)c(O)cc1O (stereo not drawn)
- IC50: 100 nM

Compound: C[C@H]1CCc2cc(C(=O)N(C)Cc3ccnc(Cl)c3)ccc2N1C(=O)c1ccc(O)cc1O
- IC50: 100 nM

Compound: CC1CCc2cc(C(=O)N(C)Cc3cccnc3)ccc2N1C(=O)c1ccc(O)cc1O (stereo not drawn)
- IC50: 100 nM

Compound: C[C@H]1CCc2cc(-c3nc(Cl)nc4c3COCC4)ccc2N1C(=O)c1ccc(O)cc1O
- IC50: 100 nM

Compound: CC1CCc2cc(-c3ncccc3C(F)(F)F)ccc2N1C(=O)c1ccc(O)cc1O (stereo not drawn)
- IC50: 100 nM

Compound: C[C@H]1CCc2cc(C(=O)N(C)CC(F)(F)F)ccc2N1C(=O)c1ccc(O)cc1O
- IC50: 100 nM

Compound: C[C@H]1CCc2ccccc2N1C(=O)c1cc(F)c(O)cc1O
- IC50: 100 nM

Compound: CCc1cc(C(=O)N2c3ccc(F)cc3CCC2C)c(O)cc1O (stereo not drawn)
- IC50: 10000 nM

Compound: C[C@H]1CCc2cc(C(=O)N(C)Cc3ccc4c(ccn4C)c3)ccc2N1C(=O)c1ccc(O)cc1O
- IC50: 100 nM

Compound: Cc1nc(C)c(-c2ccc3c(c2)CC[C@H](C)N3C(=O)c2ccc(O)cc2O)s1
- IC50: 1000 nM

Compound: C[C@@H]1CCc2ccccc2N1C(=O)c1ccc(O)cc1O
- IC50: 10000 nM

Compound: CN(Cc1nc2ccccc2[nH]1)C(=O)c1ccc2c(c1)CCCN2C(=O)c1ccc(O)cc1O
- IC50: 100 nM

Compound: CC1CCc2cc(C(=O)N(C)CCc3ccccn3)ccc2N1C(=O)c1ccc(O)cc1O (stereo not drawn)
- IC50: 100 nM

Compound: O=C(c1ccc(O)cc1O)N1CCCc2cc(-c3ncccc3Cl)ccc21
- IC50: 1000 nM

Compound: Cc1nc(C)c(-c2ccc3c(c2)CCCN3C(=O)c2ccc(O)cc2O)s1
- IC50: 100 nM

Compound: CC1CCc2cc(-c3nccn3C)ccc2N1C(=O)c1ccc(O)cc1O (stereo not drawn)
- IC50: 100 nM

Compound: CC1CCc2cc(-c3occc3C#N)ccc2N1C(=O)c1ccc(O)cc1O (stereo not drawn)
- IC50: 1000 nM

Compound: O=C(c1ccc2c(c1)CCCN2C(=O)c1ccc(O)cc1O)N1CCC1
- IC50: 1000 nM

Compound: COc1ccc2c(c1)CCCN2C(=O)c1ccc(O)cc1O
- IC50: 100 nM

Compound: CC(C)c1ccc2c(c1)CCCN2C(=O)c1ccc(O)cc1O
- IC50: 100 nM

Compound: O=C(c1ccc(O)cc1O)N1CCCc2cc(OC(F)(F)F)ccc21
- IC50: 1000 nM

Compound: Cn1nccc1-c1ccc2c(c1)CCCN2C(=O)c1ccc(O)cc1O
- IC50: 100 nM

Compound: Cc1ccc2c(c1)CCCN2C(=O)c1ccc(O)cc1O
- IC50: 100 nM

Compound: C[C@H]1CCc2cc(C(=O)O)ccc2N1C(=O)c1ccc(O)cc1O
- IC50: 10000 nM

Compound: Cc1nccnc1-c1ccc2c(c1)CCC(C)N2C(=O)c1ccc(O)cc1O (stereo not drawn)
- IC50: 100 nM

Compound: Cc1ccnnc1-c1ccc2c(c1)CCC(C)N2C(=O)c1ccc(O)cc1O (stereo not drawn)
- IC50: 100 nM

Compound: CN(CCN)C(=O)c1ccc2c(c1)CCCN2C(=O)c1ccc(O)cc1O
- IC50: 1000 nM

Compound: C[C@H]1CCc2cc(C(=O)N(C)Cc3ccc[n+](C)c3)ccc2N1C(=O)c1ccc(O)cc1O
- IC50: 100 nM
